Measurements from US7094781B2, “Sulfamides and their use as endothelin receptor antagonists” (Actelion Pharmaceuticals Ltd., priority 2000, dated 2006).
Like-named read-outs stand apart in the source and are kept apart here.

Key:
[1] = target: T1, human recombinant ETB receptor (Homo sapiens, UniProt P24530); assay: Inhibition of [125I]ET-1 binding to membranes from CHO cells carrying human ETB receptors
T1 construct: expressed in transfected cells; host or cells: CHO cells (microsomal membranes)
T1 sequence (P24530 27-442): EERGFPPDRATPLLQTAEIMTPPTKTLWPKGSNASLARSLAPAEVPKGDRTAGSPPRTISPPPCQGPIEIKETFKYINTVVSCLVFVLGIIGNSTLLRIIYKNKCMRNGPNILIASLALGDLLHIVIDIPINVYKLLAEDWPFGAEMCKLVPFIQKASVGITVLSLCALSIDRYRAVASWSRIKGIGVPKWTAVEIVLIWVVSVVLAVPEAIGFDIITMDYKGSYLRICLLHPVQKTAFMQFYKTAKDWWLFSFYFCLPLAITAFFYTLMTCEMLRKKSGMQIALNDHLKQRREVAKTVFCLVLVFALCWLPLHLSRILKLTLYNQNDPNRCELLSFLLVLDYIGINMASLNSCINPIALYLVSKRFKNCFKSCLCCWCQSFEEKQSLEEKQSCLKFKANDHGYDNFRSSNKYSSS

[2] = target: T2, ETB receptors (rat tracheal rings) (Rattus norvegicus, UniProt P21451); assay: Inhibition of sarafotoxin S6c-induced contraction on isolated rat tracheal rings
T2 construct: The thoracic aorta or trachea were excised, dissected and cut in 3–5 mm rings; from tissue; host or cells: tracheal rings of adult Wistar rats, epithelium removed
T2 sequence (P21451 27-442): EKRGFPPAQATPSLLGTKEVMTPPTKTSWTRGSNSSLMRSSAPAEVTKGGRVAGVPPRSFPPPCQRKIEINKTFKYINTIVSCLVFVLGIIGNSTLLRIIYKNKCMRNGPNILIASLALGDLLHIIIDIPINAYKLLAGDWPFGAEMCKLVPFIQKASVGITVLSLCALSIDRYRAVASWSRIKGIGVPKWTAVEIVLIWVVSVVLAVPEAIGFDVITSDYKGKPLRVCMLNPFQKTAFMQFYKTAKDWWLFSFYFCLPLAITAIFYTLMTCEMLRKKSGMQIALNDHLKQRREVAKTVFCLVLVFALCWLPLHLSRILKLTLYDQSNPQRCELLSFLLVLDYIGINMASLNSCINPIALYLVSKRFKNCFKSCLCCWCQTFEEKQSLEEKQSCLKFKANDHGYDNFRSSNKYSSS
Experimental: (§1) 2) Inhibition of Endothelin-induced Contractions on Isolated Rat Aortic Rings (ETA Receptors) and Rat Tracheal Rings (ETB Receptors):
(§2) The functional inhibitory potency of the endothelin antagonists was assessed by their inhibition of the contraction induced by endothelin-1 on rat aortic rings (ETA receptors) and of the contraction induced by sarafotoxin S6c on rat tracheal rings (ETB receptors). Adult Wistar rats were anesthetized and exsanguinated. The thoracic aorta or trachea were excised, dissected and cut in 3–5 mm rings. The endothelium/epithelium was removed by gentle rubbing of the intimal surface. […] The rings were connected to force transducers and isometric tension was recorded (EMKA Technologies SA, Paris, France). The rings were stretched to a resting tension of 3 g (aorta) or 2 g (trachea). […] The functional inhibitory potency of the test compound was assessed by calculating the concentration ratio, i.e. the shift to the right of the EC50 induced by different concentrations of test compound. EC50 is the concentration of endothelin needed to get a half-maximal contraction, pA2 is the negative logarithm of the antagonist concentration which induces a two-fold shift in the EC50 value.

[3] = target: T3, ETA receptors (rat aortic rings) (Rattus norvegicus, UniProt P26684); assay: Inhibition of endothelin-1-induced contraction on isolated rat aortic rings
T3 construct: The thoracic aorta or trachea were excised, dissected and cut in 3–5 mm rings; from tissue; host or cells: thoracic aorta rings of adult Wistar rats, endothelium removed
T3 sequence (P26684 21-426): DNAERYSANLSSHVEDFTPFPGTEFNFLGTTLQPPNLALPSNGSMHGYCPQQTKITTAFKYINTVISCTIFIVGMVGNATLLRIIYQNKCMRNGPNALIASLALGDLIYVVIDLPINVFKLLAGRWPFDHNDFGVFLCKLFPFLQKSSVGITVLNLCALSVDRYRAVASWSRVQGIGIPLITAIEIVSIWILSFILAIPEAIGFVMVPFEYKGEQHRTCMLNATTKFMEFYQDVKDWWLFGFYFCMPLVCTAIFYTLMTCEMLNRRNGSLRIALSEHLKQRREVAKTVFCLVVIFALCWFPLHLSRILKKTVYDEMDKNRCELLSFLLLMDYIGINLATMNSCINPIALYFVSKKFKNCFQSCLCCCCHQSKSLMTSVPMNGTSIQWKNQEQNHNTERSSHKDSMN
Experimental: as §1, §2

[4] = target: T4, human recombinant ETA receptor (Homo sapiens, UniProt P25101); assay: Inhibition of [125I]ET-1 binding to membranes from CHO cells carrying human ETA receptors
T4 construct: expressed in transfected cells; host or cells: CHO cells (microsomal membranes)
T4 sequence (P25101 21-427): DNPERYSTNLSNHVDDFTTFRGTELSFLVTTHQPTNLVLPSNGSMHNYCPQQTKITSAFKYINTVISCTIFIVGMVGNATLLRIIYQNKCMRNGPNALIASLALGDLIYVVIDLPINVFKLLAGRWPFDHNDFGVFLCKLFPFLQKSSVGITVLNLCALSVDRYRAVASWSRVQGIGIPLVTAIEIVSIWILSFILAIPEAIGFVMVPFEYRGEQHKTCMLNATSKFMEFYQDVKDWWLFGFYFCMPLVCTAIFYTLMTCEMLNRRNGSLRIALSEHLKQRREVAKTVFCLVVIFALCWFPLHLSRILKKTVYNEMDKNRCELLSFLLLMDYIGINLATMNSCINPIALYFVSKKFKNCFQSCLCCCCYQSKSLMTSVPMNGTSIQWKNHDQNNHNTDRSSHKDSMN

Row | SMILES | IC50 [1] [nM] | Kb [2] [nM] | Kb ([3]; read-out: pA2 value ETA (converted)) [nM] | IC50 [4] [nM] | Kb [3] [nM]
1 | O=S(=O)(NCc1ccccn1)Nc1ncnc(OCCOc2ncc(Br)cn2)c1-c1ccc(Cl)cc1 [Example 18] | 3330 | > 10000 | 7.08 | 8.5 | 
2 | CSc1cnc(OCCOc2ncnc(NS(=O)(=O)NCc3ccccc3)c2-c2ccc(Br)cc2)nc1 [Example 102] | 65 | 174 |  | 0.46 | 3.98
